From US20050080113A1, “Medicinal compositions” (priority 2001, published 2005)

For `CC(=O)Nc1cc(-c2sc(C)nc2-c2cccc(C)c2)ccn1` [H 82-10, N-[4 [2 methyl-4 (3-methylphenyl)-1,3 thiazol-5 yl]-2 pyridyl]acetamide], the melting point was 162 to 163 °C.
In the case of `Cc1cccc(-c2nc(N)sc2-c2ccnc(N3CCOCC3)c2)c1` [H 34-1, [4 (3 methylphenyl)-5 (2-morpholino-4 pyridyl)-1,3 thiazol-2 yl]amine], the melting point is reported as 188 to 189 °C.
For `CCOC(=O)Cc1nc(-c2cccc(C)c2)c(-c2ccnc(N)c2)s1` [H 18-5, Ethyl [5 (2 amino-4-pyridyl)-4 (3 methylphenyl)-1,3 thiazol-2 yl]acetate], the melting point was 128 to 129 °C.
In the case of `Cc1cccc(-c2nc(CC(F)(F)F)sc2-c2ccnc(N)c2)c1` [H 18-3, 4 [4 (3 methylphenyl)-2-(2,2,2 trifluoroethyl)-1,3 thiazol-5 yl]-2 pyridylamine], the melting point is reported as 131 to 132 °C.
In the case of `Cc1cccc(-c2nc(NC(=O)OCCCl)sc2-c2ccnc(C)c2)c1` [H 62, 2 chloroethyl [4 (3-methylphenyl)-5 (2 methyl-4 pyridyl)-1,3 thiazol-2-yl]carbamate], the melting point is reported as 156 to 158 °C.
With `CCCCCC(=O)Nc1cc(-c2sc(CC)nc2-c2cccc(Cl)c2)ccn1` [H 88-2, N-[4 [4 (3 chlorophenyl)-2-ethyl-1,3 thiazol-5 yl]-2 pyridyl]hexanamide] the melting point was 114 to 115 °C.
With `CCC(=O)Nc1cc(-c2sc(C(C)=O)nc2-c2cccc(Cl)c2)ccn1` [H 107, N-[4 [2 acetyl-4 (3-chlorophenyl)-1,3 thiazol-5 yl]-2 pyridyl]propionamide] the melting point was 115 to 117 °C.
Work on `CCOC(=O)Cc1nc(-c2cccc(Cl)c2)c(-c2ccnc(NC(C)=O)c2)s1` [H 103-2, ethyl [5 (2 acetylamino-4-pyridyl)-4 (3 chlorophenyl)-1,3 thiazol-2 yl]acetate] yielded a melting point of 99 to 100 °C.
`Cc1cccc(-c2nc(NC(=O)c3cccnc3)sc2-c2ccnc(F)c2)c1` [H 42-6, N-[5 (2 fluoro-4 pyridyl)-4 (3 methylphenyl)-1,3 thiazol-2 yl]nicotinamide] gave a melting point of 229 to 231 °C.
With `CCNC(=O)Nc1cc(-c2sc(CC)nc2-c2cccc(C)c2)ccn1` [H 108, N-ethyl-N′-[4 [2 ethyl-4 (3 methylphenyl)-1,3 thiazol-5 yl]-2-pyridyl]urea] the melting point was 160 to 162 °C.
Work on `CCC(=O)Nc1cc(-c2sc(C(C)(F)F)nc2-c2cccc(Cl)c2)ccn1` [H 102-4, N-[4 [4 (3 chlorophenyl)-2 (1,1 difluoroethyl)-1,3 thiazol-5 yl]-2 pyridyl]propionamide] yielded a melting point of 141 to 142 °C.
With `CCCc1cccc(-c2nc(CC)sc2-c2ccnc(NC(=O)CC)c2)c1` [H 84-8, N-[4 [2 ethyl-4 (3-propylphenyl)-1,3 thiazol-5 yl]-2 pyridyl]propionamide] the melting point was 124 to 125 °C.
In the case of `CC(=O)Nc1cc(-c2scnc2-c2cccc(C)c2)ccn1` [H 82-11, N-[4 [4 (3 methylphenyl)-1,3 thiazol-5 yl]-2 pyridyl]acetamide], the melting point is reported as 149 to 150 °C.
With `CC(C)(C)OC(=O)N1CCC(c2nc(-c3cccc(Cl)c3)c(-c3ccnc(N)c3)s2)CC1` [H 80, 4 [2 (1 tert-butoxycarbonylpiperidin-4 yl)-4 (3 chlorophenyl)-1,3 thiazol-5 yl]-2 pyridylamine] the melting point was 143 to 145 °C.
Work on `CSc1ccc(-c2nc(-c3cccc(C)c3)c(-c3ccnc(NC(=O)c4ccc5ccccc5c4)c3)s2)cc1` [D 16-18, N-[4 [4 (3 methylphenyl)-2 (4 methylthiophenyl)-1,3 thiazol-5 yl]-2 pyridyl]-2-naphthamide] yielded a melting point of 184 to 186 °C.
`Nc1nc(-c2ccccc2)c(-c2ccncc2)s1` [13-15, [4-phenyl-5-(4-pyridyl)-1,3-thiazol-2-yl]amine] gave a melting point of 248 to 250 °C.
For `Cc1cccc(-c2nc(Cc3ccccc3)sc2-c2ccnc(C)c2)c1` [H 14-7, 4 (3 methylphenyl)-5 (2-methyl-4 pyridyl)-2 (phenylmethyl)-1,3 thiazole], the melting point was 82 to 84 °C.
`CCc1cccc(-c2nc(CC)sc2-c2ccnc(NC(C)=O)c2)c1` [H 82-7, N-[4 [2 ethyl-4 (3-ethylphenyl)-1,3 thiazol-5 yl]-2 pyridyl]acetamide] showed a melting point of 112 to 113 °C.
`Cc1cc(C)cc(-c2nc(-c3ccc([S+](C)[O-])cc3)sc2-c2ccnc(C)c2)c1` (centres unmarked) [H 56-1, 4 (3,5 dimethylphenyl)-5-(2 methyl-4 pyridyl)-2 (4 methylsulfinylphenyl)-1,3 thiazole] gave a melting point of 151 to 153 °C.
Work on `CCc1nc(-c2cccc(C)c2)c(-c2ccnc(NC3CCCCC3)c2)s1` [H 36-4, N-cyclohexyl-4-[2-ethyl-4-(3-methylphenyl)-1,3-thiazol-5-yl]-2-pyridylamine] yielded a melting point of 110 to 112 °C.
For `Cc1cccc(-c2nc(-c3ccc(S(C)(=O)=O)cc3)sc2-c2ccnc(NC(=O)c3ccc4ccccc4c3)c2)c1` [D 21-4, N-[4 [4 (3 methylphenyl)-2-(4 methylsulfonylphenyl)-1,3 thiazol-5 yl]-2 pyridyl]-2-naphthamide], the melting point was 231 to 233 °C.
Work on `COc1ccc(C(=O)Nc2nc(-c3cccc(C)c3)c(-c3ccnc(C)c3)s2)cn1` [H 47, 6 methoxy-N-[4 (3-methylphenyl)-5 (2 methyl-4 pyridyl)-1,3 thiazol-2-yl]nicotinamide] yielded a melting point of 224 to 226 °C.
For `CC(=O)Nc1cc(-c2sc(-c3ccc(S(C)(=O)=O)cc3)nc2-c2cccc(Cl)c2)ccn1` [H 58-6, N-[4-[4-(3-chlorophenyl)-2-(4-methylsulfonylphenyl)-1,3-thiazol-5-yl]-2-pyridyl]acetamide], the melting point was 216 to 217 °C.
Compound `Cc1cccc(-c2nc(-c3ccc(S(C)(=O)=O)cc3)sc2-c2ccnc(NC(=O)c3cccs3)c2)c1` [D 21-3, N-[4 [4 (3 methylphenyl)-2-(4 methylsulfonylphenyl)-1,3 thiazol-5 yl]-2 pyridyl]-2-thiophenecarboxamide] has a melting point of 199 to 201 °C.
In the case of `Cc1cccc(-c2ncsc2-c2ccnc(NC(=O)Cc3ccccc3)c2)c1` [L 68-6, N-[4 [4 (3 methylphenyl)-1,3 thiazol-5 yl]-2 pyridyl]phenylacetamide], the melting point is reported as 135 to 136 °C.
In the case of `CCC(=O)Nc1cc(-c2sc(CC)nc2-c2cccc(C(C)C)c2)ccn1` [H 84-7, N-[4 [2 ethyl-4 [3 (1-methylethyl)phenyl]-1,3 thiazol-5 yl]-2 pyridyl]propionamide], the melting point is reported as 93 to 94 °C.
Compound `CONC(=O)Nc1nc(-c2cccc(C)c2)c(-c2ccnc(C)c2)s1` [H 63, N-methoxy-N′-[4 (3 methylphenyl)-5 (2 methyl-4 pyridyl)-1,3-thiazol-2 yl]urea] has a melting point of 194 to 195 °C.
In the case of `CCc1nc(-c2cccc(F)c2)c(-c2ccnc(NC(C)=O)c2)s1` [H 82-5, N-[4 [2 ethyl-4 (3-fluorophenyl)-1,3 thiazol-5 yl]-2 pyridyl]acetamide], the melting point is reported as 141 to 142 °C.
Work on `CCc1nc(-c2cccc(Cl)c2)c(-c2ccnc(N)c2)s1` [H 20-1, 4 [2 ethyl-4 (3-chlorophenyl)-1,3 thiazol-5 yl]-2 pyridylamine] yielded a melting point of 131 to 132 °C.
For `CCc1nc(-c2cccc(C(F)(F)F)c2)c(-c2ccnc(N)c2)s1` [H 20-4, 4 [2 ethyl-4 [3-(trifluoromethyl)phenyl]-1,3 thiazol-5 yl]-2 pyridylamine], the melting point was 117 to 118 °C.
In the case of `COc1ccc(C(=O)Nc2nc(-c3cccc(C)c3)c(-c3ccnc(NC4CCCCC4)c3)s2)cn1` [H 48-1, N-[5 (2 cyclohexylamino-4-pyridyl)-4 (3 methylphenyl)-1,3 thiazol-2 yl]-6-methoxynicotinamide], the melting point is reported as 191 to 192 °C.
Work on `CSc1ccc(-c2nc(-c3cccc(C)c3)c(-c3ccnc(NC(=O)c4ccccc4)c3)s2)cc1` [D 16-15, N-[4-[4-(3-methylphenyl)-2-(4-methylthiophenyl)-1,3-thiazol-5-yl]-2-pyridyl]benzamide] yielded a melting point of 180 to 182 °C.
`Cc1cc(C)cc(-c2nc(NC(=O)c3cccnc3)sc2-c2ccnc(C)c2)c1` [H 42-1, N-[4-(3,5-dimethylphenyl)-5-(2-methyl-4-pyridyl)-1,3-thiazol-2-yl]nicotinamide] gave a melting point of 203 to 206 °C.
For `Cc1cccc(-c2nc(NC(=O)c3cccnc3)sc2-c2ccnc(NC3CCCC3)c2)c1` [H 42-4, N-[5 (2 cyclopentylamino-4 pyridyl)-4 (3 methylphenyl)-1,3 thiazol-2 yl]nicotinamide], the melting point was 215 to 216 °C.
In the case of `CCc1cccc(-c2nc(CC)sc2-c2ccnc(N)c2)c1` [H 20-8, 4 [2 ethyl-4 (3-ethylphenyl)-1,3 thiazol-5 yl]-2 pyridylamine], the melting point is reported as 128 to 129 °C.
With `CCCC(=O)Nc1cc(-c2sc(CC)nc2-c2cccc(Cl)c2)ccn1` [H 86, N-[4 [4 (3 chlorophenyl)-2-ethyl-1,3 thiazol-5 yl]-2 pyridyl]butyramide] the melting point was 119 to 120 °C.
`CSc1ccc(-c2nc(-c3cccc(C)c3)c(-c3ccnc(NCc4ccc5ccccc5c4)c3)s2)cc1` [D 19-20, N-[4 [4 (3 methylphenyl)-2 (4 methylthiophenyl)-1,3 thiazol-5 yl]-2 pyridyl]-N-(2-naphthylmethyl)amine] showed a melting point of 144 to 145 °C.
Compound `CC(=O)Nc1cc(-c2sc(C(C)OC(=O)c3ccccc3)nc2-c2cccc(C)c2)ccn1` (centres unmarked) [H 110, 1 [5 (2 acetylamino-4-pyridyl)-4 (3 methylphenyl)-1,3 thiazol-2 yl]ethyl benzoate] has a melting point of 110 to 113 °C.
Compound `Cc1cccc(-c2nc(-c3ccc(S(C)(=O)=O)cc3)sc2-c2ccnc(NCC3CCCCC3)c2)c1` [H 37-3, N-cyclohexylmethyl-4 [4-(3 methylphenyl)-2 (4 methylsulfonylphenyl)-1,3 thiazol-5-yl]-2 pyridylamine] has a melting point of 157 to 159 °C.
`Cc1cc(C)cc(-c2nc(-c3ccc(S(C)(=O)=O)cc3)sc2-c2cc(C)nc(C)c2)c1` [H 58-3, 4 (3,5 dimethylphenyl)-5-(2,6 dimethyl-4 pyridyl)-2 (4 methylsulfonylphenyl)-1,3-thiazole] gave a melting point of 217 to 220 °C.
In the case of `CCc1nc(-c2ccc(F)cc2)c(-c2ccnc(NC(C)=O)c2)s1` [H 82-2, N-[4 [2 ethyl-4 (4-fluorophenyl)-1,3 thiazol-5 yl]-2 pyridyl]acetamide], the melting point is reported as 190 to 191 °C.
